Results as given in US20250108213A1, “COMPOSITIONS AND METHODS FOR ENHANCING THE EFFECT OF PLATINUM-BASED SYSTEMIC THERAPY” (NOVOCURE GMBH, priority 2023, published 2025).
“Also recorded” adds a separate entry of the source.

Key:
A2780 cells [1] = test system: A2780 cells
Procedure: (§1) Cells were seeded on coverslip (22 mm diameter; 20×10^3 cells/coverslip for A2780 and A2780cis; 40×10^3 cells/coverslip for OVCAR-3). After overnight incubation, the coverslips were transferred into in vitro dishes containing 2 ml of media. TTFields at a frequency of 200 kHz (and intensity of 1 V/cm RMS) were applied to the cells for 72 hr using the INOVITRO system (Novocure, Haifa, Israel).
(§2) For efficacy outcomes (cell count, overall effect, and apoptosis), various concentrations of carboplatin (MCE MedChemExpress, HY-17393), olaparib (Cayman Chemical, 10621), or niraparib (Cayman Chemical, 20842) were applied, with or without TTFields.
(§3) Cell count was examined following treatment using Cytek Northern Lights flow cytometer (Cytek Biosciences, USA).
(§4) Treated cells were harvested, re-plated in 6-well plates (500 cells/well for A2780 and A2780cis; 1000 for cells/well OVCAR-3), and grown for 7 (A2780 and A2780cis) or 21 (OVCAR-3) days. Colonies were stained with 0.5% crystal violet, quantified with ImageJ, and expressed as percentages relative to control. Overall effect was calculated by multiplying colony formation with the corresponding cell count.
(§5) The surviving fraction predicted for an additive effect between TTFields and drug was calculated per the various drug concentrations by multiplying the actual measured surviving fractions for the individual treatments one by the other (SFcalculated additive=SFTTFields×SFdrug; SF are expressed as probability). Based on the calculated values, a trendline was determined. Additivity, synergy, or antagonism was defined when the calculated additive trendline overlapped, was above, or was below the actual measured line for TTFields+drug, respectively.
(§6) For quantifying the magnitude of TTFields-drug interaction, interaction index (Ii) values were calculated by the Bliss independence method using mortality values (Mx=1−SFx). Per the various drug concentrations, mortality predicted for an additive effect between TTFields and drug (Mcalculated additive=MTTFields+Mdrug−MTTFields×Mdrug) was divided by the actual measured mortality for TTFields+drug. Additivity was determined when the 95% confidence interval (CI) overlapped 1, synergy when 95% CI<1, and antagonism when 95% CI>1. Lower Ii values were considered indicative of higher synergy levels.

OVCAR-3 cells [2] = test system: OVCAR-3 cells
Procedure: as §1, §2, §3, §4, §5, §6

A2780 cells [3] = assay: Apoptosis, Annexin V/7-AAD staining, flow cytometer; assay type: cell-based, human; conditions: TTFields applied with drug
Procedure: (§7) Apoptosis: Treated cells were double-stained with FITC-conjugated annexin V (AnnV) and 7-aminoactinomycin D (7AAD), and data acquisition was performed with a flow cytometer.
(§8) Apoptosis was also examined. Treated cells were double-stained with FITC-conjugated annexin V (AnnV) and 7-aminoactinomycin D (7AAD), and data acquisition was performed with a flow cytometer.
(§9) Treated cells were stained with FITC-conjugated Annexin V (AnnV) and 7-Aminoactinomycin D (7-AAD) using a commercial kit (BioLegend, San Diego, CA, USA), according to the manufacturer's instruction. Data acquisition and analysis were done on the Cytek Northern Lights flow cytometer

OVCAR-3 cells [4] = assay: as above; assay type: cell-based, human; conditions: TTFields applied with drug
Procedure: as §7, §9

A2780cis cells = assay: as above; assay type: cell-based, human; conditions: TTFields applied with drug
Procedure: as §8
Treated cells were double-stained with FITC-conjugated annexin V (AnnV) and 7-aminoactinomycin D (7AAD), and data acquisition was performed with a flow cytometer.
as §9

[5] = test system: γH2AX foci in cell nuclei; assay: DNA damage examination by fluorescence microscopy; assay type: cell-based, human; conditions: treatment alone, all cell lines (A2780, OVCAR-3, A2780cis), relative to control
Procedure: For DNA damage and cell cycle examination, the following drug concentrations were selected: For A2780—6 μM carboplatin, 1 μM olaparib, and 0.5 μM niraparib; For OVCAR-3-16 μM carboplatin, 0.5 μM olaparib, and 0.8 μM niraparib; For A2780cis—36 μM carboplatin, 10 μM olaparib, and 1.5 μM niraparib. Treated cells were fixed with 4% paraformaldehyde for 10 min, permeabilized for 20 min with 0.5% Triton X-100 in PBS, and blocked with donkey serum (PBS with 0.3% Triton X-100 and donkey serum 1:100). Cells were incubated at 4° C. overnight with anti-γH2AX antibody (Cell Signaling, Danvers, MA, USA; #9718, 1:400), followed by incubation at room temperature for 1 hr with Alexa Flour 488-conjugated secondary antibody (Jackson Immunoresearch, Cambridge, UK; #711-545-152, 1:500) and […] 4′,6-diamidino-2-phenylindole (DAPI; Sigma Aldrich, Rehovot, Israel). LSM 700 laser scanning confocal system (Zeiss, Gottingen, Germany) was utilized to obtain images, and the mean number of foci per nucleus was determined using the FIJI software with the BioVoxxel plugin.

G2/M cell cycle arrest = assay: Cell cycle analysis (7-AAD, flow cytometer); assay type: cell-based, human
Procedure: For DNA damage and cell cycle examination, the following drug concentrations were selected: For A2780—6 μM carboplatin, 1 μM olaparib, and 0.5 μM niraparib; For OVCAR-3-16 μM carboplatin, 0.5 μM olaparib, and 0.8 μM niraparib; For A2780cis—36 μM carboplatin, 10 μM olaparib, and 1.5 μM niraparib. Treated cells were fixed with 70% ice-cold ethanol for 30 min, pelleted, washed, and stained for 30 min at 37° C. in phosphate buffered saline (PBS) containing 1% FBS 5 μg/ml 7-AAD (BioLegend), 200 μg/ml RNase, 1 mM EDTA and 0.1% Triton X-100. Data acquisition (at 665/30 nm) and analysis were done on the Cytek Northern Lights flow cytometer and the FlowJo 10.8.1 software (BD Biosciences), respectively.

[6] = TTFields 200 kHz, 1 V/cm RMS, 72 h
[7] = TTFields plus drug vs drug alone
[8] = TTFields plus drug vs drug alone, p<0.0001

O=C(c1cc(Cc2n[nH]c(=O)c3ccccc23)ccc1F)N1CCN(C(=O)C2CC2)CC1 [olaparib]
type of TTFields-drug interaction, cytotoxic effect (cell count) (A2780 cells [1]): synergistically
level of TTFields-drug synergy (A2780 cells [1]; A2780 relative to A2780cis cells, by Ii): higher
type of TTFields-drug interaction (measured vs calculated additive curve) (A2780 cells [1]; HRP cells, TTFields 200 kHz, 1 V/cm RMS, 72 h): high synergy
type of TTFields-drug interaction, overall effect (cell count and clonogenic effect) (A2780 cells [1]; [6]): synergistically
effect of TTFields on the drug-induced overall effect (cell count x colony formation) (A2780 cells [1]; [7]): significantly augmented
effect of TTFields on the drug-induced effect, cell count (A2780 cells [1]; [8]): significantly augmented
type of TTFields-drug interaction (measured vs calculated additive curve) (OVCAR-3 cells [2]; HRD cells, TTFields 200 kHz, 1 V/cm RMS, 72 h): additively
type of TTFields-drug interaction, overall effect (cell count and clonogenic effect) (OVCAR-3 cells [2]; [6]): additive
type of TTFields-drug interaction, cytotoxic effect (cell count) (OVCAR-3 cells [2]; TTFields 200 kHz, 1 V/cm RMS, 72 h, BRCA mutant): additively
effect of TTFields on the drug-induced overall effect (cell count x colony formation) (OVCAR-3 cells [2]; [7]): significantly augmented
effect of TTFields on the drug-induced effect, cell count (OVCAR-3 cells [2]; [8]): significantly augmented
sensitivity to drug (cell count dose response) (OVCAR-3 cells [2]; drug alone, 72 h, compared among A2780, OVCAR-3, A2780cis): highest sensitivity
effect of TTFields on the apoptotic effect / apoptotic cell fraction (A2780 cells [3]): enhanced; also recorded: elevation
effect of TTFields on the apoptotic effect / apoptotic cell fraction (OVCAR-3 cells [4]): enhanced; also recorded: elevation
effect of TTFields on the apoptotic effect / apoptotic cell fraction (A2780cis cells): elevation
levels of γH2AX foci, monotherapy [5]: mild elevation
cell cycle arrest, drug alone (G2/M cell cycle arrest): induced G2/M arrest
